{"source": "patent US20250171430A1", "about": "“PYRAZOLYL COMPOUNDS AS KV7 CHANNEL ACTIVATORS” (Biohaven Therapeutics Ltd., priority 2022, published 2025)", "data": [{"molecular_target": "T1, Kv7.2/7.3 (Homo sapiens, UniProt O43525+O43526)", "T1 construct": "Kv7.2 tetracycline-induced, Kv7.3 constitutive", "assay": "Kv7.2/7.3 Activation Assay (Thallium Flux Assay)", "type": "cell-based", "settings": "hKV7.2/7.3 cell line; test compound at single concentration of 10 μM; fluorescence at 90 sec normalized to positive control (retigabine, 30 μM)", "excerpt": "The Thallium Flux Assay is used as a surrogate indicator of potassium channel activity.\nThe experimental protocol was adapted from the FluxOR™ II Green Potassium Ion Channel Assay User Guide (Pub. No. MAN0016084, Invitrogen). Conditions were optimized for the Kv7.2/7.3 cell line.\nCell Line: The hKV7.2/7.3 cell line was obtained from Chantest (cat. #CT6147).\nCell Culture: Kv7.2/7.3 cells were maintained in a media containing DMEM/F12; 50/50 (Fisher 11-330), 10% Fetal Bovine Serum (FBS) (Fisher 26-140), 100 units/mL Penicillin-Streptomycin (Fisher 15-140), 0.005 mg/ml Blasticidin (InvivoGen ant-bl-1), 0.5 mg/mL Geneticin (InvivoGen ant-gn-5), and 0.1 mg/mL Zeocin (Fisher R25001). One day prior to experimentation, cells were plated in 96 well clear bottom plates (Corning cat. #353219) in a media without Blasticidin, Geneticin, or Zeocin. In this cell line Kv7.3 channel expression is controlled by a constitutive promoter. Kv7.2 channel expression was induced by adding tetracycline (Sigma T7660) at a final concentration of 10 ng/mL overnight in a cell culture incubator at 37° C. and 5% CO2. On the day of assay, the cell culture medium in the 96-well plates was replaced by assay buffer containing the thallium-sensitive fluorescent sensor, FluxOR II Green prepared according to manufacturer's instructions. The 96-well plates were then incubated for 1 h at 37° C. Following the incubation, the FluxOR II Green-containing solution was replaced with extracellular solution.\nTest Compound Plates: The test compound is diluted in a mixture of 0.1% DMSO/extracellular solution at a single concentration of 10 μM. Dilutions were made on a Biomek NXP (BECKMAN COULTER). Extracellular solution contained (in mM: 145 NaCl, 4 KCl, 2 CaCl2), 1 MgCl2, 10 HEPES, and 10 Glucose, pH 7.4).\nMeasurement and data analysis: Thallium-flux-mediated changes in intracellular fluorescence were made using a plate reader (Enspire, Perkin Elmer) set with an excitation wavelength of 475 nm and an emission wavelength of 530 nm. After a 15 sec baseline measurement, the stimulus buffer containing thallium and potassium was added to the 96-well plate containing FluxOR II Green-loaded cells and test compounds. Fluorescence values at 90 sec were normalized to the positive control (retigabine, 30 μM) and test compound activities were assigned categories according to the formula: “No Activity <0.15, “+” Moderate Activity 0.15-0.7, and “++” High Activity >0.7.", "values": [{"smiles": "Cc1c(C2CCC2)c(NC(=O)Cc2cc(F)cc(F)c2)nn1C", "note": "[Compound 1, N-(4-cyclobutyl-1,5-dimethyl-1H-pyrazol-3-yl)-2-(3,5-difluorophenyl)acetamide]", "Kv7.2/7.3 Activity": "+ (“+” Moderate Activity 0.15-0.7)"}, {"smiles": "CCn1nc(NC(=O)CC(C(F)(F)F)C(F)(F)F)c(C2CC2)c1C", "note": "[Compound 2, N-(4-cyclopropyl-1-ethyl-5-methyl-1H-pyrazol-3-yl)-4,4,4-trifluoro-3-(trifluoromethyl)butanamide]", "Kv7.2/7.3 Activity": "+ (“+” Moderate Activity 0.15-0.7)"}, {"smiles": "CCn1nc(NC(=O)Cc2cc(F)cc(F)c2)c(C2CC2)c1C", "note": "[Compound 3, N-(4-cyclopropyl-1-ethyl-5-methyl-1H-pyrazol-3-yl)-2-(3,5-difluorophenyl)acetamide]", "Kv7.2/7.3 Activity": "++ (“++” High Activity ≥ 0.7)"}, {"smiles": "CCn1nc(NC(=O)CC(C)(C)O)c(C2CC2)c1C", "note": "[Compound 4, N-(4-cyclopropyl-1-ethyl-5-methyl-1H-pyrazol-3-yl)-3-hydroxy-3-methylbutanamide]", "Kv7.2/7.3 Activity": "− (“−” No Activity < 0.15)"}, {"smiles": "CCn1nc(NC(=O)CC(C)C)c(C2CC2)c1C", "note": "[Compound 5, N-(4-cyclopropyl-1-ethyl-5-methyl-1H-pyrazol-3-yl)-3-methylbutanamide]", "Kv7.2/7.3 Activity": "− (“−” No Activity < 0.15)"}, {"smiles": "CCOC(=O)Nc1nn(CC)c(C)c1C1CC1", "note": "[Compound 6, ethyl (4-cyclopropyl-1-ethyl-5-methyl-1H-pyrazol-3-yl)carbamate]", "Kv7.2/7.3 Activity": "− (“−” No Activity < 0.15)"}, {"smiles": "CCn1nc(NC(=O)CC(C)(C)C)c(C2CC2)c1C", "note": "[Compound 7, N-(4-cyclopropyl-1-ethyl-5-methyl-1H-pyrazol-3-yl)-3,3-dimethylbutanamide]", "Kv7.2/7.3 Activity": "+ (“+” Moderate Activity 0.15-0.7)"}, {"smiles": "CCn1nc(NC(=O)Cc2ccccc2C(F)(F)F)c(C2CC2)c1C", "note": "[Compound 8, N-(4-cyclopropyl-1-ethyl-5-methyl-1H-pyrazol-3-yl)-2-(2-(trifluoromethyl)phenyl)acetamide]", "Kv7.2/7.3 Activity": "+ (“+” Moderate Activity 0.15-0.7)"}, {"smiles": "CCn1nc(NC(=O)Cc2cc(Cl)ccc2Cl)c(C2CC2)c1C", "note": "[Compound 9, N-(4-cyclopropyl-1-ethyl-5-methyl-1H-pyrazol-3-yl)-2-(2,5-dichlorophenyl)acetamide]", "Kv7.2/7.3 Activity": "+ (“+” Moderate Activity 0.15-0.7)"}, {"smiles": "CCn1nc(NC(=O)[C@H]2CC2(C)C)c(C2CC2)c1C", "note": "[Compound 10, (S)-N-(4-cyclopropyl-1-ethyl-5-methyl-1H-pyrazol-3-yl)-2,2-dimethylcyclopropane-1-carboxamide]", "Kv7.2/7.3 Activity": "+ (“+” Moderate Activity 0.15-0.7)"}, {"smiles": "CCn1nc(NC(=O)c2ccc(F)c(F)c2)c(C2CC2)c1C", "note": "[Compound 11, N-(4-cyclopropyl-1-ethyl-5-methyl-1H-pyrazol-3-yl)-3,4-difluorobenzamide]", "Kv7.2/7.3 Activity": "− (“−” No Activity < 0.15)"}, {"smiles": "Cn1nc(NC(=O)CC2(C(F)(F)F)CC2)c(C2CCC2)c1-c1ccccc1", "note": "[Compound 12, N-(4-cyclobutyl-1-methyl-5-phenyl-1H-pyrazol-3-yl)-2-(1-(trifluoromethyl)cyclopropyl)acetamide]", "Kv7.2/7.3 Activity": "++ (“++” High Activity ≥ 0.7)"}, {"smiles": "Cn1nc(NC(=O)CC(C)(C)C(F)(F)F)c(C2CCC2)c1-c1ccccc1", "note": "[Compound 13, N-(4-cyclobutyl-1-methyl-5-phenyl-1H-pyrazol-3-yl)-4,4,4-trifluoro-3,3-dimethylbutanamide]", "Kv7.2/7.3 Activity": "++ (“++” High Activity ≥ 0.7)"}, {"smiles": "Cn1nc(NC(=O)C[C@@H]2CC(F)(F)C2(F)F)c(C2CCC2)c1-c1ccc(F)cc1", "note": "[Compound 14, (R)-N-(4-cyclobutyl-5-(4-fluorophenyl)-1-methyl-1H-pyrazol-3-yl)-2-(2,2,3,3-tetrafluorocyclobutyl)acetamide]", "Kv7.2/7.3 Activity": "++ (“++” High Activity ≥ 0.7)"}, {"smiles": "Cn1nc(NC(=O)C[C@@H]2CC(F)(F)C2(F)F)c(C2CCC2)c1Cc1ccccc1", "note": "[Compound 15, (R)-N-(5-benzyl-4-cyclobutyl-1-methyl-1H-pyrazol-3-yl)-2-(2,2,3,3-tetrafluorocyclobutyl)acetamide]", "Kv7.2/7.3 Activity": "++ (“++” High Activity ≥ 0.7)"}, {"smiles": "Cn1nc(NC(=O)C[C@H]2CC(F)(F)C2(F)F)c(C2CCC2)c1Cc1ccccc1", "note": "[Compound 16, (S)-N-(5-benzyl-4-cyclobutyl-1-methyl-1H-pyrazol-3-yl)-2-(2,2,3,3-tetrafluorocyclobutyl)acetamide]", "Kv7.2/7.3 Activity": "++ (“++” High Activity ≥ 0.7)"}, {"smiles": "Cn1nc(NC(=O)CC2(C(F)(F)F)CC2)c(C2CCC2)c1Cc1ccccc1", "note": "[Compound 17, N-(5-benzyl-4-cyclobutyl-1-methyl-1H-pyrazol-3-yl)-2-(1-(trifluoromethyl)cyclopropyl)acetamide]", "Kv7.2/7.3 Activity": "++ (“++” High Activity ≥ 0.7)"}, {"smiles": "Cn1nc(NC(=O)C[C@@H]2CC(F)(F)C2(F)F)c(C2CCC2)c1-c1noc2ccccc12", "note": "[Compound 18, (R)-N-(5-(benzo[d]isoxazol-3-yl)-4-cyclobutyl-1-methyl-1H-pyrazol-3-yl)-2-(2,2,3,3-tetrafluorocyclobutyl)acetamide]", "Kv7.2/7.3 Activity": "++ (“++” High Activity ≥ 0.7)"}, {"smiles": "Cn1nc(NC(=O)C[C@H]2CC(F)(F)C2(F)F)c(C2CCC2)c1-c1noc2ccccc12", "note": "[Compound 19, (S)-N-(5-(benzo[d]isoxazol-3-yl)-4-cyclobutyl-1-methyl-1H-pyrazol-3-yl)-2-(2,2,3,3-tetrafluorocyclobutyl)acetamide]", "Kv7.2/7.3 Activity": "++ (“++” High Activity ≥ 0.7)"}, {"smiles": "Cc1c(NC(=O)CC(C)(C)C(F)(F)F)nn(C)c1-c1ccc(F)cc1", "note": "[Compound 20, 4,4,4-trifluoro-N-(5-(4-fluorophenyl)-1,4-dimethyl-1H-pyrazol-3-yl)-3,3-dimethylbutanamide]", "Kv7.2/7.3 Activity": "++ (“++” High Activity ≥ 0.7)"}, {"smiles": "Cn1nc(NC(=O)C[C@H]2CC(F)(F)C2(F)F)c(C2CCC2)c1-c1ccc(F)cc1", "note": "[Compound 21, (S)-N-(4-cyclobutyl-5-(4-fluorophenyl)-1-methyl-1H-pyrazol-3-yl)-2-(2,2,3,3-tetrafluorocyclobutyl)acetamide]", "Kv7.2/7.3 Activity": "++ (“++” High Activity ≥ 0.7)"}, {"smiles": "CC(C)c1c(NC(=O)CC(C)(C)C)nn(C)c1-c1ccc(F)cc1", "note": "[Compound 22, N-(5-(4-fluorophenyl)-4-isopropyl-1-methyl-1H-pyrazol-3-yl)-3,3-dimethylbutanamide]", "Kv7.2/7.3 Activity": "++ (“++” High Activity ≥ 0.7)"}, {"smiles": "CC(C)c1c(NC(=O)CC(C)(C)C)nn(C)c1-c1ccc(OC(F)(F)F)cc1", "note": "[Compound 23, N-(4-isopropyl-1-methyl-5-(4-(trifluoromethoxy)phenyl)-1H-pyrazol-3-yl)-3,3-dimethylbutanamide]", "Kv7.2/7.3 Activity": "++ (“++” High Activity ≥ 0.7)"}, {"smiles": "CC(C)c1c(NC(=O)C[C@@H]2CC(F)(F)C2(F)F)nn(C)c1-c1ccc(OC(F)(F)F)cc1", "note": "[Compound 24, (R)-N-(4-isopropyl-1-methyl-5-(4-(trifluoromethoxy)phenyl)-1H-pyrazol-3-yl)-2-(2,2,3,3-tetrafluorocyclobutyl)acetamide]", "Kv7.2/7.3 Activity": "++ (“++” High Activity ≥ 0.7)"}, {"smiles": "CC(C)c1c(NC(=O)C[C@H]2CC(F)(F)C2(F)F)nn(C)c1-c1ccc(OC(F)(F)F)cc1", "note": "[Compound 25, (S)-N-(4-isopropyl-1-methyl-5-(4-(trifluoromethoxy)phenyl)-1H-pyrazol-3-yl)-2-(2,2,3,3-tetrafluorocyclobutyl)acetamide]", "Kv7.2/7.3 Activity": "++ (“++” High Activity ≥ 0.7)"}, {"smiles": "CC(C)c1c(NC(=O)CC2(C(F)(F)F)CC2)nn(C)c1-c1ccc(OC(F)(F)F)cc1", "note": "[Compound 26, N-(4-isopropyl-1-methyl-5-(4-(trifluoromethoxy)phenyl)-1H-pyrazol-3-yl)-2-(1-(trifluoromethyl)cyclopropyl)acetamide]", "Kv7.2/7.3 Activity": "++ (“++” High Activity ≥ 0.7)"}, {"smiles": "Cn1nc(NC(=O)CC(C)(C)C)c(C2CCC2)c1-c1ccc(C(C)(C)O)cc1", "note": "[Compound 29, N-(4-cyclobutyl-5-(4-(2-hydroxypropan-2-yl)phenyl)-1-methyl-1H-pyrazol-3-yl)-3,3-dimethylbutanamide]", "Kv7.2/7.3 Activity": "− (“−” No Activity < 0.15)"}, {"smiles": "Cn1nc(NC(=O)C[C@@H]2CC(F)(F)C2(F)F)c(C2CCC2)c1-c1ccc(OC(F)(F)F)cc1", "note": "[Compound 30, (R)-N-(4-cyclobutyl-1-methyl-5-(4-(trifluoromethoxy)phenyl)-1H-pyrazol-3-yl)-2-(2,2,3,3-tetrafluorocyclobutyl)acetamide]", "Kv7.2/7.3 Activity": "++ (“++” High Activity ≥ 0.7)"}]}]}
